Earlier results as cited in patent US9604977B2, “Bicyclic thiophenylamide compounds” (Hoffmann-La Roche Inc., priority 2012, dated 2017).

Structure (SMILES)	glucose uptake in muscle and adipose (ob/ob mice; clamp study in ob/ob mice)	hepatic glucose production (ob/ob mice; clamp study in ob/ob mice)	body weight and energy consumption (ob/ob mice; ob/ob mice)	hepatic steatosis (ob/ob mice; ob/ob mice)	atherosclerotic plaques formation (ApoE KO mice)	insulin and glucose tolerance (mice under HF diet)	plasma triglyceride and free fatty acid (mice under HF diet)
CCc1c(-c2ccccc2)c(-c2ccccc2)nn1-c1ccccc1-c1cccc(OCC(=O)O)c1 [BMS309403]	increased glucose uptake in muscle and adipose	reduction of hepatic glucose production	no change in body weight and energy consumption	reduction in hepatic steatosis	decrease in atherosclerotic plaques formation		
Cc1noc(-c2c(NC(=O)C3=C(C(=O)O)CCCC3)sc3c2CCCC3)n1 [Compound 3]						no improvement in insulin and glucose tolerance	reduction in plasma triglyceride and free fatty acid
